# Experimental data published in patent US5591762A, “Benzimidazoles useful as angiotensin-11 antagonists” (Dr. Karl Thomae GmbH, priority 1991, dated 1997).
# What was measured:
# [1] = molecular target: T1, angiotensin II-receptor (Rattus norvegicus, UniProt P25095); test: Angiotensin II-receptor bonding (binding) with [125I]-angiotensin II on rat lung homogenate; details: 50 pM [125I]-angiotensin II, 60 min at 37° C., pH 7.40
# T1 construct: The tissue (rats lung ) is homogenised in Tris-buffer; from tissue; host or cells: rat lung homogenate (washed 20,000×g pellet)
# T1 sequence (P25095 1-359): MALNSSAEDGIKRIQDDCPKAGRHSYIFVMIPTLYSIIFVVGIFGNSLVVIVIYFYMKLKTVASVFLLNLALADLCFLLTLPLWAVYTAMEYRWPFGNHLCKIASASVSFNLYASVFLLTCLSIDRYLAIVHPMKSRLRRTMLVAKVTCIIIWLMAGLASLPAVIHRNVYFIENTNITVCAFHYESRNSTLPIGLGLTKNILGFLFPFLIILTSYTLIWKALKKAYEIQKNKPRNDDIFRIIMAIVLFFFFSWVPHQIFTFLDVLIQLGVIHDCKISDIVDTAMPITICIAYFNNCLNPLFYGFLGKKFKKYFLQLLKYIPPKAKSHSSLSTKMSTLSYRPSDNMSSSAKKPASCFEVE
# Method: DESCRIPTION OF METHOD: ANGIOTENSIN II-RECEPTOR BONDING
# The tissue (rats lung ) is homogenised in Tris-buffer (50 mMol Tris, 150 mMol NaCl, 5 mMol EDTA, pH 7.40) and centrifuged twice for 20 minutes at 20,000×g. The finished pellets are resuspended in incubating buffer (50 mMol Tris, 5 mMol MgCl2, 0.2% BSA, pH 7.40) 1:75, based on the moist weight of the tissue. Each 0.1 ml of homogenate is incubated for 60 minutes at 37° C. with 50 pM [^125 I]-antiotensin II (NEN, Dreieich, FRG) with increasing concentrations of the test substance in a total volume of 0.25 ml. Incubation is ended by rapid filtration through glass fibre filter mats. The filters are each washed with 4 ml of ice cold buffer (25 mMol Tris, 2.5 mMol MgCl2, 0.1% BSA, pH 7.40). The bound radioactivity is measured using a gamma-counter. The corresponding IC50 value is obtained from the dose-activity curve.
# [2] = test system: rat model of renovascular hypertension (2-kidney 1-clip rat); test: Renovascular hypertension: blood pressure lowering in 2-kidney 1-clip rats (telemetry, oral); assay type: in vivo; details: two times daily
# Source text: DESCRIPTION OF METHOD: RENOVASCULAR HYPERTENSION
# Blood pressure lowering effects of angiotensin-II antagonists were investigated in a rat model of renovascular hypertension. This model, the 2-kidney 1-clip rat, is characterized by an elevated renin activity (see J. Exper. Med. 59, 347-378 (1934), J. Applied Physiol. 31(1), 142-144 (1971) and Gross D. R. in "Animal Models in Cardiovascular Research: Animal Models of hypertension" Martinus Nijhoff Publishers (1985)). The compounds are given two times daily by oral administration to conscious freely moving rats which have been implanted with a chronic-use pressure transmitter to monitor blood pressure and heart rate continuously (PhysioTel® telemetry device).
# Male rats (140-150 g) are anaesthetized with pentobarbitonesodium (50 mg/kg i.p.). The abdominal cavity is opened by a midline incision. A solid silver clip with an internal diameter of 0.20 mm is applied to the left renal artery as close as possible to the aorta. The contralateral kidney is not disturbed. The catheter of a pressure transmitter (TA11PA-C40) is inserted in the abdominal aorta and the transmitter fixed to abdominal musculature. The abdomen is closed with sutures. The animals are allowed to recover for several weeks and housed individually in cages.
# After the implantation of the chronic-use device, blood pressure and heart rate are transmitted by telemetry and the signals are received by a RA 1010 General Purpose Receiver (Data Science Int.). Data are acquired with the Dataquest® IV 1.11 System on a Hewlett Packard Vectra ES/12 386 computer.
# Compounds are dissolved in 1M HCl or 1M NaOH. To stabilize the solution β-cyclodextrin (1.8 g/v%) is added. The solutions (0.3 and 1 mg/kg/2 ml) are orally given by gavage at 10.00 a.m. and 4.00 p.m..
# [3] = test system: conscious renally hypertensive rats; test: Hypotensive effect in conscious renally hypertensive rats after oral administration; assay type: in vivo, rat; details: 10 mg/kg
# Method: In addition, compounds D, E, F, G, H, M and O were tested on conscious renally hypertensive rats for their effect after oral administration using methods known from the literature.
IC50 [1] [nM],Compound,hypotensive effect [3],other results
3.4,CCCc1nc2c(C)cc(-c3cn(CC(N)=O)cn3)cc2n1Cc1ccc(-c2ccccc2C(=O)O)cc1 [AA],,
1.3,CCCc1nc2c(C)cc(-c3cn(CCCN(C)C)cn3)cc2n1Cc1ccc(-c2ccccc2C(=O)O)cc1 [BB],,
,CCCc1nc2c(C)cc(-c3nc4ccccc4n3C)cc2n1Cc1ccc(-c2ccccc2C(=O)O)cc1 [D],exhibited a hypotensive effect,Blood pressure lowering activity ([2]; 0.3 mg/kg): -37 mmHg; Blood pressure lowering activity ([2]; 1.0 mg/kg): -68 mmHg
,CCCc1nc2c(C)cc(-c3nc4ccccc4n3C)cc2n1Cc1ccc(-c2ccccc2-c2nn[nH]n2)cc1 [E],exhibited a hypotensive effect,Blood pressure lowering activity ([2]; 0.3 mg/kg): -55 mmHg; Blood pressure lowering activity ([2]; 1.0 mg/kg): -78 mmHg
,CCCc1nc2c(C)cc(N3Cc4ccccc4C3=O)cc2n1Cc1ccc(-c2ccccc2-c2nn[nH]n2)cc1 [F],exhibited a hypotensive effect,
,CCCc1nc2c(C)cc(N3CCCCS3(=O)=O)cc2n1Cc1ccc(-c2ccccc2-c2nn[nH]n2)cc1 [G],exhibited a hypotensive effect,
,CCCCc1nc2c(C)cc(N3C(=O)C(C)=C(C)C3=O)cc2n1Cc1ccc(-c2ccccc2C(=O)O)cc1 [H],exhibited a hypotensive effect,
,Cc1cc(-c2nc3ccccc3n2C)cc2c1nc(C1CC1)n2Cc1ccc(-c2ccccc2C(=O)O)cc1 [M],exhibited a hypotensive effect,
,CCCc1nc2c(C)cc(-c3cn4cccnc4n3)cc2n1Cc1ccc(-c2ccccc2-c2nn[nH]n2)cc1 [O],exhibited a hypotensive effect,
,CCCCc1nc2c(C)cc(-c3nc4ccccc4n3C)cc2n1Cc1ccc(-c2ccccc2-c2nnn[nH]2)cc1 [T],,Blood pressure lowering activity ([2]; 0.3 mg/kg): -24 mmHg
,CCCc1nc2c(C)cc(-c3cn4ccccc4n3)cc2n1Cc1ccc(-c2ccccc2-c2nnn[nH]2)cc1 [U],,Blood pressure lowering activity ([2]; 1.0 mg/kg): -43 mmHg
1.2,CCCc1nc2c(C)cc(-c3cn(C)cn3)cc2n1Cc1ccc(-c2ccccc2C(=O)O)cc1 [V],,
1.5,CCCc1nc2c(C)cc(-c3cn(C(C)C)cn3)cc2n1Cc1ccc(-c2ccccc2-c2nn[nH]n2)cc1 [W],,
40,CCCc1nc2c(C)cc(-c3coc(C)n3)cc2n1Cc1ccc(-c2ccccc2C(=O)O)cc1 [X],,
10,CCOc1nc2ccc(-c3cn(C(C)C)cn3)cc2n1Cc1ccc(-c2ccccc2C(=O)O)cc1 [Y],,
15,CCCc1nc2c(C)cc(-c3cn(C4CCCCCC4)cn3)cc2n1Cc1ccc(-c2ccccc2C(=O)O)cc1 [Z],,
